In patent publication US12545659B2, “IRAK degraders and uses thereof” (Kymera Therapeutics, Inc., priority 2019, dated 2026):
Where two headings read alike, the source gives them in different places.

Key:
[1] = cn_pd bond, 14-membered ring
OCI-LY10 cells = assay: CTG Cell Viability Assay - OCI-LY10; format: cell-based; details: Homo sapiens
Method: (§1) Compound-mediated viability effect on OCI-LY10 or SUDHL-2 was quantitatively determined using the CellTiter-Glo® Luminescent Cell Viability Assay kit from Promega (Catalog number G7570) following manufacturer's recommended procedures. Briefly, OCI-LY10 or SUDHL-2 cells were seeded into 384 well plates (Grenier Bio-One, Catalog number 781080) with a density of 10,000 cells per well. Compounds were then added to the assay plate with final top concentration of 10 M and 1:3 dilution series with total of 9 doses. The final DMSO concentration was normalized to 0.2%. The assay plates were incubated at 37° C. for 4 days under 5% CO2. Then the assay plate was equilibrated at room temperature for 10 minutes. To determine cell viability, L CellTiter Glo reagent was added to each well and the assay plate was centrifuged at 1000 rpm for 30 second, incubated at room temperature for 10 min, and analyzed by detecting the luminescence using a multimode plate reader (EnVision 2105, PerkinElmer). The data was then analyzed by software Prism 7.0 from GraphPad and the dose response curves were fit using a three-parameter logistic equation to calculate IC50.

[2] = biological target: T1, Aiolos (protein product of gene IKZF3) (Homo sapiens, UniProt Q9UKT9); assay: Aiolos degradation in OCI-LY10 (quantitative immunoblotting); format: cell-based; details: OCI-LY10 cells, 6 h, immunoblot relative to actin
T1 construct: endogenous in cells; host or cells: OCI-LY10
Method: (§2) Degradation of Ikaros (protein product of gene IKZF1) and Aiolos (protein product of gene IKZF3) were determined by quantitative immunoblotting as follows. OCI-LY10 cells, 2×10^6 cells/well, were treated with listed concentrations of IRAK4 degraders or control compounds in 6 well plates for 6 h. Cells were collected, washed with cold PBS, lysed in RIPA buffer (Boston BioProducts BP-115D) with protease/phosphatase inhibitor cocktail (Roche 05892791001/Roche 04906837001) and centrifuged at 13000 RPM for 20 min to precipitate insoluble material. The supernatant fraction was diluted in SDS-PAGE loading buffer (Beyotime Bio P0015) and 20 L of each sample was resolved on 4-12% Bis-Tris SDS-PAGE gels (Novex, WG1402BOX). Resolved samples were transferred to nitrocellulose membranes by wet electro-transfer method at […] for 1.5 h. The membrane was blocked with LICOR blocking buffer (LI-COR, 927-50000) for 1 hour, washed three times with TBST (CST #9997S) for 5 minutes each and incubated with primary antibody prepared in block buffer with 0.1% Tween-20 (Solarbio, P8220) at 4° C. overnight. Ikaros antibody was rabbit monoclonal D6N9Y (CST #14859), at 1:1000 dilution. Aiolos antibody was rabbit monoclonal D1C1E (CST #15103), at 1:1000 dilution. Signal was normalized to mouse anti-beta-Actin monoclonal 8H10D10 (CST #3700) used at 1:10,000 dilution. After incubation in primary antibodies, membranes were washed three times with TBST, 5 minutes each, incubated with fluorescently labeled secondary antibodies anti-rabbit IgG (Licor, 926-32211) at 1:5000 dilution; anti-mouse IgG (LI-COR, 926-68070) at 1:5000 dilution, for 1 hour at RT. After incubation in secondary, membranes were washed three times with TBST, 5 minutes each and read on LICOR Odyssey imager. Data was reported as signal for Ikaros or Aiolos relative to signal for actin, and normalized to DMSO-treated control.
(§3) The letter codes for Ikaros and Aiolos DC50 include: A (<0.05 μM); B (0.05-0.1 μM); C (0.1-0.5 μM); D (0.5-1.0 μM); and E (>1.0 μM).

SUDHL-2 cells = assay: CTG Cell Viability Assay - SUDHL-2; format: cell-based; details: Homo sapiens, SU-DHL-2, 96 h
Method: as §1

[3] = biological target: T2, Ikaros (protein product of gene IKZF1) (Homo sapiens, UniProt Q13422+Q96SW2); assay: Ikaros degradation in OCI-LY10 (quantitative immunoblotting); format: cell-based; details: OCI-LY10 cells, 6 h, immunoblot relative to actin; read-out: Ikros Degradation in OCI-LY10: DC50
T2 construct: endogenous in cells; host or cells: OCI-LY10
Method: as §2, §3

IRAK4 = biological target: T3, IRAK4 (Homo sapiens, UniProt Q9NWZ3); assay: IRAK4 MSD Degradation in OCI-LY10; format: cell-based; details: OCI-LY10 cells
T3 construct: endogenous in cells; host or cells: OCI-LY10
T3 sequence (Q9NWZ3 1-460): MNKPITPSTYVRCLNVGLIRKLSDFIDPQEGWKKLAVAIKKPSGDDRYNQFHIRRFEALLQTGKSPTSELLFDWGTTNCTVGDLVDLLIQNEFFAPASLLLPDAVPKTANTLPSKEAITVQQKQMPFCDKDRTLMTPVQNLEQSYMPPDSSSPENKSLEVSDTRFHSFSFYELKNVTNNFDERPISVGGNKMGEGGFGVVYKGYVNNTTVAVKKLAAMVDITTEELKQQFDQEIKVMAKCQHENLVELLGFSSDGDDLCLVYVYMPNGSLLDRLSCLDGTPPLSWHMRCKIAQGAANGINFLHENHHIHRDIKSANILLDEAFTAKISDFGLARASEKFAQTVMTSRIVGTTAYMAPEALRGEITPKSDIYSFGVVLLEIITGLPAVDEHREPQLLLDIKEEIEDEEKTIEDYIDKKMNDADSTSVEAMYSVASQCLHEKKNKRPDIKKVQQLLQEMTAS
Method in brief: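 OCI-LY10 cells treated with 8-dose, 1:3 dilution series (top final 1 to 10 μM) for 4 to 24 h at 37 °C, 5% CO2. Lysate IRAK4 quantified by MSD sandwich immunoassay (mouse 2H9 capture, rabbit Y279 detection, SULFO-TAG anti-rabbit); DC50 from three-parameter logistic fit.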

[4] = test system: OCI-LY10 (MYD88 mutant DLBCL cell line); assay: OCI-LY10 viability, CTG; format: cell-based; details: Homo sapiens, OCI-Ly10, read-out: OCI-LY10 Viability, CTG IC50
OCI-LY19 (MYD88 WT line) = assay: OCI-LY19 viability, CTG; format: cell-based; details: Homo sapiens, in vitro
[5] = test system: SU-DHL2 (MYD88 mutant DLBCL cell line); assay: SU-DHL2 viability, CTG; format: cell-based; details: Homo sapiens, SU-DHL-2, read-out: SU-DHL2 Viability, CTG IC50
SU-DHL6 (MYD88 WT line) = assay: SU-DHL6 viability, CTG; format: cell-based; details: Homo sapiens, SU-DHL-6, in vitro
U2932 (MYD88 WT line) = assay: U2932 viability, CTG; format: cell-based; details: Homo sapiens, in vitro
[6] = 96 h, OCI-LY10 cells, 4 days, CellTiter-Glo, read-out: CTG Cell Viability Assay - OCI-LY10: IC50
[7] = SUDHL-2 cells, 4 days, CellTiter-Glo, read-out: CTG Cell Viability Assay - SUDHL-2: IC50
[8] = 4 hrs incubation, read-out: IRAK4 degradation in OCI-LY10 at 4 hrs: DC50
[9] = 24 hrs incubation, read-out: IRAK4 degradation in OCI-LY10 at 24 hrs: DC50

T1 sequence (Q9UKT9 whole entry): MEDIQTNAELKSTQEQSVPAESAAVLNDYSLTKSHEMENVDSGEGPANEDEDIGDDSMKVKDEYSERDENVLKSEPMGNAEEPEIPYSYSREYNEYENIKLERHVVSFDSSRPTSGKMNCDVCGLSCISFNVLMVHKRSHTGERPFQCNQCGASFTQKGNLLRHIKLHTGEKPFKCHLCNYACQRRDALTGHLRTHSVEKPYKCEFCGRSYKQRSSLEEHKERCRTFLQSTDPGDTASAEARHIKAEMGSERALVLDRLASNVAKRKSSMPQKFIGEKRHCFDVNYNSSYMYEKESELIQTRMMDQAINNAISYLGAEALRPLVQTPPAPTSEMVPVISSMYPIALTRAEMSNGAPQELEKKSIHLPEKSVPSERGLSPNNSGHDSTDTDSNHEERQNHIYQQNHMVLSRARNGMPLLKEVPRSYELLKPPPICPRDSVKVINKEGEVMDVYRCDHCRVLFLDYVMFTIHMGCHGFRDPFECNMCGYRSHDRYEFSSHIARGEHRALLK
T1 sequence (Q96SW2 whole entry, further chain): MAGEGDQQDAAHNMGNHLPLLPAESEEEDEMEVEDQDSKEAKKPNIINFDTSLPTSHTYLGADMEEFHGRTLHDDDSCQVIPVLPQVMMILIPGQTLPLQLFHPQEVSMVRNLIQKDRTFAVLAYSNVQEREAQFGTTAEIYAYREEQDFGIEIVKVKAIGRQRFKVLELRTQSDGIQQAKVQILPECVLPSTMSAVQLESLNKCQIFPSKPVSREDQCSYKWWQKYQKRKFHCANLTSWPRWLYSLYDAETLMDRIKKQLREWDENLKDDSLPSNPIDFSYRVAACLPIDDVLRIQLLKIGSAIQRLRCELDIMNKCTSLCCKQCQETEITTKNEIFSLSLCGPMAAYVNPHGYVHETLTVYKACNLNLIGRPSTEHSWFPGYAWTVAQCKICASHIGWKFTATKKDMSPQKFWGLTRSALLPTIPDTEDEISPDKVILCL
T1 sequence (Q16531 whole entry partner): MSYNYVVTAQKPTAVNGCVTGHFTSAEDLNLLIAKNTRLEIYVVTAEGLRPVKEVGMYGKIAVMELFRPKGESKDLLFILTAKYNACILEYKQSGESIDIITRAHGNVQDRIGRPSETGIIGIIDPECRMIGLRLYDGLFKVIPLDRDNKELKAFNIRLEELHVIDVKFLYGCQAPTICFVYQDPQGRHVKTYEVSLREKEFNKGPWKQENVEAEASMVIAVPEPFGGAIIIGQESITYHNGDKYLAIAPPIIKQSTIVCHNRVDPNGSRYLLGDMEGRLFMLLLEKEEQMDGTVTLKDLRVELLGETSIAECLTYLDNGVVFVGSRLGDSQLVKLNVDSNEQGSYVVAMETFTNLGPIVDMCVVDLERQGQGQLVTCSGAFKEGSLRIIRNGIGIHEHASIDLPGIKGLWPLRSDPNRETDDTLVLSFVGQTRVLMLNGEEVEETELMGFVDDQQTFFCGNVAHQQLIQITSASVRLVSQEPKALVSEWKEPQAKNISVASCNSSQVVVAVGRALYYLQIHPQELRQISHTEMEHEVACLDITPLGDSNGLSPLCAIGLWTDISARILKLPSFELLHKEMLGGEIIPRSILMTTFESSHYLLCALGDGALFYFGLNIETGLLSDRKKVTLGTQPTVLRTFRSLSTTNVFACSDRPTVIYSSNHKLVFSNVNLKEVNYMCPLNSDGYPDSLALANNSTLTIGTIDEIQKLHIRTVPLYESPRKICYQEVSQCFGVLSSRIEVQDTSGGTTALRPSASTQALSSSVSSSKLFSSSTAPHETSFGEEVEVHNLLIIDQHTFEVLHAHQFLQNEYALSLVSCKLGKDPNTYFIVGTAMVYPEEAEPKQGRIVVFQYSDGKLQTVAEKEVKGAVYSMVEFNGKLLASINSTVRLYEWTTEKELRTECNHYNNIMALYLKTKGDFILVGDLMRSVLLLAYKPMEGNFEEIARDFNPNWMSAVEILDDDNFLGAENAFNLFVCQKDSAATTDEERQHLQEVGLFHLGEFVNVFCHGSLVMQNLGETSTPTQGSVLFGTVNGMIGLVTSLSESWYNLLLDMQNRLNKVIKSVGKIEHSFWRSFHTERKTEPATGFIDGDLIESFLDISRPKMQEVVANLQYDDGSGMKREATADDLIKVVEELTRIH
T2 sequence (Q13422 whole entry): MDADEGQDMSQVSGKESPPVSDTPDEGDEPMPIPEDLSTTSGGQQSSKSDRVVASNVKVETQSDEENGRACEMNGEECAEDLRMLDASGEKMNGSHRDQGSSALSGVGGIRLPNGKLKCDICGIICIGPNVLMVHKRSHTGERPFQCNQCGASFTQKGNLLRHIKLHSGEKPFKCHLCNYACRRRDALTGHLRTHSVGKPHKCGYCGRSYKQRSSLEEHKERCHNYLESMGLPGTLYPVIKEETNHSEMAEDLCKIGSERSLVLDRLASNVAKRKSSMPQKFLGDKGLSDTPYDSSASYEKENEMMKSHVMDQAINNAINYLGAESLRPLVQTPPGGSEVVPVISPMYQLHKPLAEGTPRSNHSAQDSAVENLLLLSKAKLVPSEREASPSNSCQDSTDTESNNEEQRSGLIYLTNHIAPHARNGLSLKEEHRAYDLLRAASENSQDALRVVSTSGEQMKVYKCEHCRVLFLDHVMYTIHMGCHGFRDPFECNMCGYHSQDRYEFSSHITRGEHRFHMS
T2 sequence (Q96SW2 whole entry): as the sequence (Q96SW2 whole entry, further chain) above
T2 sequence (Q16531 whole entry partner): as the sequence (Q16531 whole entry partner) above

| IC50 (OCI-LY10 cells; [6]) [µM] | DC50 [2] [nM] | IC50 (SUDHL-2 cells; [7]) [µM] | DC50 (IRAK4; [8]) [nM] | Compound | DC50 [3] [nM] | DC50 (IRAK4; [9]) [nM] | further results |
| --- | --- | --- | --- | --- | --- | --- | --- |
| – | – | – | – | NC(=O)c1cccc(OCCO[C@@H]2CCN(c3cc4nn(C5CCC(CO)CC5)cc4cc3Br)C2)c1 (some centres unmarked) | – | – | ring closure, yield after HPLC ([1]; the molecule shown is the open-chain precursor, BrettPhos-Pd-G4/BrettPhos/Cs2CO3, dioxane, 53.8 mM, 60.0 °C): 31% |
| < 0.05 | < 50 | 0.1 to 0.5 | < 50 | COc1cc2nn([C@H]3CC[C@H](CN4CC5(CC(CCNc6cccc7c6C(=O)N(C6CCC(=O)NC6=O)C7=O)C5)C4)CC3)cc2cc1NC(=O)c1cccc(C(C)(F)F)n1 (mixture of isomers) [I-93, 6-(1,1-difluoroethyl)-N-[2-[4-[[6-[2-[[2-(2,6-dioxo-3-piperidyl)-1,3-dioxo-isoindolin-4-yl]amino]ethyl]-2-azaspiro[3.3]heptan-2-yl]methyl]cyclohexyl]-6-methoxy-indazol-5-yl]pyridine-2-carboxamide] | < 50 | 50 to 100 | – |
| – | – | – | – | CN(C[C@H]1CC[C@H](n2cc3cc(NC(=O)c4cccc(C(F)(F)F)n4)c(C(C)(C)O)cc3n2)CC1)C1CCN(Cc2cccc3c2n(C)c(=O)n3C2CCC(=O)NC2=O)CC1 (some centres unmarked) [I-1] | – | 100 to 500 | IC50 [4]: > 10 µM; IC50 (OCI-LY19 (MYD88 WT line)): > 10 µM; IC50 [5]: > 10 µM; IC50 (SU-DHL6 (MYD88 WT line)): 5.6 µM; IC50 (U2932 (MYD88 WT line)): > 10 µM |
| < 0.05 | < 50 | > 1 | < 50 | COc1cc2nn([C@H]3CC[C@H](CN4CCC5(CC4)CC(CNc4cccc6c4C(=O)N(C4CCC(=O)NC4=O)C6=O)C5)CC3)cc2cc1NC(=O)c1cccc(C(F)(F)F)n1 (some centres unmarked) [I-201, N-[2-[4-[[2-[[[2-(2,6-dioxo-3-piperidyl)-1,3-dioxo-isoindolin-4 yl]amino]methyl]-7-azaspiro[3.5]nonan-7-yl]methyl]cyclohexyl]-6-methoxy-indazol-5-yl]-6-(trifluoromethyl)pyridine-2-carboxamide] | 50 to 100 | 50 to 100 | – |
| – | – | – | – | 12-((1R,4R)-4-(hydroxymethyl)cyclohexyl)-12H-5,8,11-trioxa-2-aza-1(5,6)-indazola-4(2,6)-pyridinacycloundecaphan-3-one | – | – | ring closure, yield after HPLC ([1]; BrettPhos Pd G4/Cs2CO3, DMA, 21.2 mM, 80.0 °C): 58% |

| Compound | IC50 (OCI-LY10 cells; [6]) [µM] | DC50 [2] [nM] | IC50 (SUDHL-2 cells; [7]) [µM] | DC50 (IRAK4; [8]) [nM] | DC50 [3] [nM] | DC50 (IRAK4; [9]) [nM] | further results |
| --- | --- | --- | --- | --- | --- | --- | --- |
| COc1cc2nn([C@H]3CC[C@H](CN4CCC5(CC4)CC(CCNc4cccc6c4C(=O)N(C4CCC(=O)NC4=O)C6=O)C5)CC3)cc2cc1NC(=O)c1cccc(C(C)(F)F)n1 (some centres unmarked) [I-63, 6-(1,1-Difluoroethyl)-N-[2-[4-[[2-[2-[[2-(2,6-dioxo-3-piperidyl)-1,3-dioxo-isoindolin-4-yl]amino]ethyl]-7-azaspiro[3.5]nonan-7-yl]methyl]cyclohexyl]-6-methoxy-indazol-5-yl]pyridine-2-carboxamide] | – | < 50 | – | < 50 | < 50 | 50 to 100 | IC50 (OCI-LY10 cells; OCI-Ly10, 96 h, read-out: CTG Cell Viability Assay - OCI-LY10: IC50 (μM)): 0.05 to 0.1 µM; IC50 (SUDHL-2 cells; read-out: CTG Cell Viability Assay - SUDHL-2: IC50 (μM)): 0.1 to 0.5 µM |
